Data from US8912184B1, “Therapeutic and diagnostic methods” (Alzheimer's Institute of America, Inc., priority 2010, dated 2014).
Like-named read-outs stand apart in the source and are kept apart here.

Assays:
cancer cell lines = experiment: Standard Cytotoxicity Assay for other cancer cell types (TC50, CellTiter-Glo); type: cell-based
Procedure: Approximately 24 hours later, test compound was added from serial dilutions prepared in DMSO from DMSO stock solutions.

[1] = type: in vivo; conditions: mice, single oral dose 300 mg/kg, by 5 days

O=C(NCc1cccnc1)Nc1ccc(COc2ccccc2-c2ccccc2)cc1 [Exemplary Compound A, 1-{4-[(biphenyl-2-yloxy)methyl]phenyl}-3-(pyridin-3-ylmethyl)urea]
CC50 (cancer cell lines; Homo sapiens, MDA-MB-231, 168 h, MDA-MB-231 cells (breast), 7 day, read-out: Cmpd A 7 day TC50): 8 nM
CC50 (cancer cell lines; Homo sapiens, MDA-MB-436, 72 h, MDA-MB-436 cells (breast), 3 day, read-out: Cmpd A 3 day TC50): 17 nM
CC50 (cancer cell lines; Homo sapiens, MIA PaCa-2, 72 h, MIA PaCa-2 (pancreatic), 3 DAY, read-out: TC50 (the source's name)): 1.8 nM
CC50 (cancer cell lines; Homo sapiens, MIA PaCa-2, 72 h, MiaPaCa2 cells (pancreas), 3 day, read-out: Cmpd A 3 day TC50): 1.8 nM
CC50 (cancer cell lines; Homo sapiens, MIA PaCa-2, 168 h, MIA PaCa-2 (pancreatic), 7 DAY, read-out: TC50 (the source's name)): 0.4 nM
CC50 (cancer cell lines; Homo sapiens, MIA PaCa-2, 168 h, MiaPaCa2 cells (pancreas), 7 day, read-out: Cmpd A 7 day TC50): 0.4 nM
CC50 (cancer cell lines; Homo sapiens, MM1.S, 72 h, MM.1S cells (myeloma), 3 day, read-out: Cmpd A 3 day TC50): 1.2 nM
CC50 (cancer cell lines; Homo sapiens, Malme-3M, 72 h, MALME-3M cells (melanoma (lung metastasis)), 3 day, read-out: Cmpd A 3 day TC50): 2.5 nM
CC50 (cancer cell lines; Homo sapiens, NB-4, 72 h, NB-4 cells (myelogenous leukemia), 3 day, read-out: Cmpd A 3 day TC50): < 0.8 nM
CC50 (cancer cell lines; Homo sapiens, NCI-H69, 72 h, NCI-H69 (SCLC), 3 DAY, read-out: TC50 (the source's name)): 1 nM
CC50 (cancer cell lines; Homo sapiens, NCI-H69, 72 h, NCI-H69 cells (lung (small cell)), 3 day, read-out: Cmpd A 3 day TC50): 1 nM
CC50 (cancer cell lines; Homo sapiens, NCI-H82, 72 h, NCI-H82 (SCLC), 3 DAY, read-out: TC50 (the source's name)): 1.1 nM
CC50 (cancer cell lines; Homo sapiens, NCI-H226, 72 h, NCI-H226 cells (lung (NSCLC)), 3 day, read-out: Cmpd A 3 day TC50): 62 nM
CC50 (cancer cell lines; Homo sapiens, NCI-H460, 72 h, NCI-H460 (NSCLC), 3 DAY, read-out: TC50 (the source's name)): 15.4 nM
CC50 (cancer cell lines; Homo sapiens, NCI-H460, 72 h, NCI-H460 cells (lung (NSCLC)), 3 day, n = 9, read-out: Cmpd A 3 day TC50): 26 nM
CC50 (cancer cell lines; Homo sapiens, NCI-H460, 168 h, NCI-H460 cells (lung (NSCLC)), 7 day, n = 8, read-out: Cmpd A 7 day TC50): 17 nM
CC50 (cancer cell lines; Homo sapiens, NCI-H522, 72 h, NCI-H522 (NSCLC), 3 DAY, read-out: TC50 (the source's name)): 1 nM
CC50 (cancer cell lines; Homo sapiens, NCI-H522, 168 h, NCI-H522 (NSCLC), 7 DAY, read-out: TC50 (the source's name)): 0.4 nM
CC50 (cancer cell lines; Homo sapiens, NCI-H522, 168 h, NCI-H522 cells (lung (NSCLC)), 7 day, read-out: Cmpd A 7 day TC50): 0.4 nM
CC50 (cancer cell lines; Homo sapiens, NCI-H929, 72 h, NCI-H929 (myeloma), 3 DAY, read-out: TC50 (the source's name)): 2.5 nM
CC50 (cancer cell lines; Homo sapiens, NCI-H1299, 72 h, NCI-H1299 cells (lung (NSCLC)), 3 day, read-out: Cmpd A 3 day TC50): 4 nM
CC50 (cancer cell lines; Homo sapiens, NCI-H1650, 72 h, NCI-H1650 (NSCLC), 3 DAY, read-out: TC50 (the source's name)): 2.5 nM
CC50 (cancer cell lines; Homo sapiens, NCI-H1650, 72 h, NCI-H1650 cells (lung (NSCLC)), 3 day, read-out: Cmpd A 3 day TC50): 1.5 nM
CC50 (cancer cell lines; Homo sapiens, NCI-N87, 72 h, NCI-N87 (gastric), 3 DAY, read-out: TC50 (the source's name)): 0.3 nM
CC50 (cancer cell lines; Homo sapiens, NCI-N87, 72 h, NCI-N87 cells (gastric), 3 day, read-out: Cmpd A 3 day TC50): 0.3 nM
CC50 (cancer cell lines; Homo sapiens, NCI-N87, 168 h, NCI-N87 (gastric), 7 DAY, read-out: TC50 (the source's name)): 0.2 nM
CC50 (cancer cell lines; Homo sapiens, NCI-N87, 168 h, NCI-N87 cells (gastric), 7 day, read-out: Cmpd A 7 day TC50): 0.2 nM
CC50 (cancer cell lines; Homo sapiens, NOMO-1, 72 h, NOMO-1 cells (myelogenous leukemia), 3 day, read-out: Cmpd A 3 day TC50): < 0.8 nM
CC50 (cancer cell lines; Homo sapiens, OCI-LY19, 72 h, OCI-LY-19 cells (lymphoma), 3 day, read-out: Cmpd A 3 day TC50): 1.1 nM
CC50 (cancer cell lines; Homo sapiens, OCI-LY19, 72 h, OCI-Ly19 (lymphoma), 3 DAY, read-out: TC50 (the source's name)): 1.2 nM
CC50 (cancer cell lines; Homo sapiens, OPM-2, 72 h, OPM-2 (myeloma), 3 DAY, read-out: TC50 (the source's name)): 1.5 nM
CC50 (cancer cell lines; Homo sapiens, OVCAR-3, 72 h, OVCAR3 (ovarian), 3 DAY, read-out: TC50 (the source's name)): 1.1 nM
CC50 (cancer cell lines; Homo sapiens, OVCAR-3, 72 h, OVCAR-3 cells (ovary), 3 day, read-out: Cmpd A 3 day TC50): 1.1 nM
CC50 (cancer cell lines; Homo sapiens, OVCAR-3, 168 h, OVCAR3 (ovarian), 7 DAY, read-out: TC50 (the source's name)): 0.4 nM
CC50 (cancer cell lines; Homo sapiens, OVCAR-3, 168 h, OVCAR-3 cells (ovary), 7 day, read-out: Cmpd A 7 day TC50): 0.4 nM
CC50 (cancer cell lines; Homo sapiens, OVCAR-4, 72 h, OVCAR-4 cells (ovary), 3 day, read-out: Cmpd A 3 day TC50): 2.8 nM
CC50 (cancer cell lines; Homo sapiens, OVCAR-5, 72 h, OVCAR-5 cells (ovary), 3 day, read-out: Cmpd A 3 day TC50): 1.5 nM
CC50 (cancer cell lines; Homo sapiens, OVCAR-8, 72 h, OVCAR-8 cells (ovary), 3 day, read-out: Cmpd A 3 day TC50): 0.5 nM
CC50 (cancer cell lines; Homo sapiens, PC-3, 72 h, PC-3 cells (prostate), 3 day, read-out: Cmpd A 3 day TC50): < 1.5 nM
CC50 (cancer cell lines; Homo sapiens, PFSK-1, 72 h, PFSK-1 cells (brain; malignant neuroectodermal tumor), 3 day, read-out: Cmpd A 3 day TC50): < 0.8 nM
CC50 (cancer cell lines; Homo sapiens, RPMI-8226, 72 h, RPMI-8226 cells (myeloma), 3 day, read-out: Cmpd A 3 day TC50): 6 nM
CC50 (cancer cell lines; Homo sapiens, Ramos, 72 h, Ramos cells (lymphoma), 3 day, read-out: Cmpd A 3 day TC50): 1.8 nM
CC50 (cancer cell lines; Homo sapiens, SF-295, 72 h, SF-295 (glioma), 3 DAY, read-out: TC50 (the source's name)): 1.5 nM
CC50 (cancer cell lines; Homo sapiens, SK-BR-3, 72 h, SK-BR-3 cells (breast), 3 day, read-out: Cmpd A 3 day TC50): 6.8 nM
CC50 (cancer cell lines; Homo sapiens, SK-OV-3, 72 h, SK-OV-3 cells (ovary), 3 day, read-out: Cmpd A 3 day TC50): 1.2 nM
CC50 (cancer cell lines; Homo sapiens, SKM-1, 72 h, SKM-1 cells (myelogenous leukemia), 3 day, read-out: Cmpd A 3 day TC50): < 0.8 nM
CC50 (cancer cell lines; Homo sapiens, SR, 72 h, SR cells (lymphoma), 3 day, read-out: Cmpd A 3 day TC50): 21 nM
CC50 (cancer cell lines; Homo sapiens, SU-DHL10, 72 h, SU-DHL-10 cells (lymphoma), 3 day, read-out: Cmpd A 3 day TC50): 0.75 nM
CC50 (cancer cell lines; Homo sapiens, SU-DHL-1, 72 h, SU-DHL-1 cells (lymphoma), 3 day, read-out: Cmpd A 3 day TC50): 37 nM
CC50 (cancer cell lines; Homo sapiens, SU-DHL-4, 72 h, SU-DHL-4 (lymphoma), 3 DAY, read-out: TC50 (the source's name)): 1.5 nM
CC50 (cancer cell lines; Homo sapiens, SU-DHL-4, 72 h, SU-DHL-4 cells (lymphoma), 3 day, read-out: Cmpd A 3 day TC50): 0.84 nM
CC50 (cancer cell lines; Homo sapiens, SU-DHL-5, 72 h, SU-DHL-5 (lymphoma), 3 DAY, read-out: TC50 (the source's name)): 0.9 nM
CC50 (cancer cell lines; Homo sapiens, SU-DHL-5, 72 h, SU-DHL-5 cells (lymphoma), 3 day, read-out: Cmpd A 3 day TC50): 0.57 nM
CC50 (cancer cell lines; Homo sapiens, SU-DHL-8, 72 h, SU-DHL-8 cells (lymphoma), 3 day, read-out: Cmpd A 3 day TC50): 0.59 nM
CC50 (cancer cell lines; Homo sapiens, SU.86.86, 72 h, SU.86.86 cells (pancreas), 3 day, read-out: Cmpd A 3 day TC50): 4.3 nM
CC50 (cancer cell lines; Homo sapiens, SW48, 72 h, SW-48 cells (colon), 3 day, read-out: Cmpd A 3 day TC50): 2.3 nM
CC50 (cancer cell lines; Homo sapiens, SW480, 72 h, SW 480 cells (colon), 3 day, read-out: Cmpd A 3 day TC50): 4 nM
CC50 (cancer cell lines; Homo sapiens, T47D, 72 h, T47D cells (breast), 3 day, read-out: Cmpd A 3 day TC50): 0.8 nM
CC50 (cancer cell lines; Homo sapiens, T-24, 72 h, T24 cells (bladder), 3 day, read-out: Cmpd A 3 day TC50): 1 nM
CC50 (cancer cell lines; Homo sapiens, THP-1, 72 h, THP-1 cells (lymphocytic leukemia), 3 day, read-out: Cmpd A 3 day TC50): < 0.8 nM
CC50 (cancer cell lines; Homo sapiens, U2OS, 72 h, U-2 OS cells (osteosarcoma), 3 day, read-out: Cmpd A 3 day TC50): 2.2 nM
CC50 (cancer cell lines; Homo sapiens, U-87 MG, 72 h, U-87MG (glioma), 3 DAY, read-out: TC50 (the source's name)): 23 nM
CC50 (cancer cell lines; Homo sapiens, U-87 MG, 72 h, U-87 MG cells (brain; glioblastoma/astrocytoma), 3 day, read-out: Cmpd A 3 day TC50): 15 nM
CC50 (cancer cell lines; Homo sapiens, U-266, 72 h, U266 cells (myeloma), 3 day, read-out: Cmpd A 3 day TC50): 18 nM
CC50 (cancer cell lines; Homo sapiens, U-266, 168 h, U266 cells (myeloma), 7 day, read-out: Cmpd A 7 day TC50): 1.5 nM
CC50 (cancer cell lines; Homo sapiens, U-937, 72 h, U-937 cells (lymphoma), 3 day, read-out: Cmpd A 3 day TC50): 1 nM
CC50 (cancer cell lines; Homo sapiens, UACC-257, 72 h, UACC-257 cells (melanoma), 3 day, read-out: Cmpd A 3 day TC50): 27 nM
CC50 (cancer cell lines; Homo sapiens, VCaP, 72 h, VCaP cells (prostate), 3 day, n = 2, read-out: Cmpd A 3 day TC50): > 10000 nM
CC50 (cancer cell lines; Homo sapiens, VCaP, 168 h, VCaP cells (prostate), 7 day, read-out: Cmpd A 7 day TC50): 14 nM
CC50 (cancer cell lines; Hs766T, 72 h, Hs 766T cells (pancreas), 3 day, read-out: Cmpd A 3 day TC50): 4.7 nM
CC50 (cancer cell lines; L-82, 72 h, L-82 cells (lymphoma), 3 day, read-out: Cmpd A 3 day TC50): 32 nM
CC50 (cancer cell lines; MLE12, 72 h, MLE-12 cells (mouse; lung), 3 day, read-out: Cmpd A 3 day TC50): 4 nM
CC50 (cancer cell lines; MM.1R, 72 h, MM.1R cells (myeloma), 3 day, read-out: Cmpd A 3 day TC50): 1.5 nM
CC50 (cancer cell lines; Mus musculus, B16-F10, 72 h, B16-F10 cells (mouse; melanoma), 3 day, read-out: Cmpd A 3 day TC50): 80 nM
CC50 (cancer cell lines; Mus musculus, Hepa1-6, 72 h, Hepa1-6 cells (mouse; hepatoma), 3 day, read-out: Cmpd A 3 day TC50): 2.5 nM
CC50 (cancer cell lines; Mus musculus, RAW264.7, 72 h, RAW264.7 cells (mouse; leukemia), 3 day, read-out: Cmpd A 3 day TC50): 14 nM
CC50 (cancer cell lines; OVCAR-3 cells (ovary), 3 day, read-out: Cmpd A 3 day TC50): < 0.8 nM
CC50 (cancer cell lines; OVCAR-8 cells (ovary), 3 day, read-out: Cmpd A 3 day TC50): < 0.8 nM
CC50 (cancer cell lines; SR-786, 72 h, SR-786 cells (lymphoma), 3 day, read-out: Cmpd A 3 day TC50): 1.1 nM
CC50 (cancer cell lines; SU-DHL-10 cells (lymphoma), 3 day, read-out: Cmpd A 3 day TC50): 0.83 nM
CC50 (cancer cell lines; SUP-M2, 72 h, SUP-M2 cells (lymphoma), 3 day, read-out: Cmpd A 3 day TC50): 2.2 nM
CC50 (cancer cell lines; T47D cells (breast), 3 day, read-out: Cmpd A 3 day TC50): < 1.5 nM
CC50 (cancer cell lines; U266 cells (myeloma), 3 day, read-out: Cmpd A 3 day TC50): 10.3 nM
CC50 (cancer cell lines; U-937 cells (lymphoma), 3 day, read-out: Cmpd A 3 day TC50): 0.89 nM
CC50 (cancer cell lines; UWB1289, 72 h, UWB1.289 cells (ovary), 3 day, read-out: Cmpd A 3 day TC50): 2.4 nM
lethality [1]: completely lethal
